Data reported in US12358886B2, “Heterocyclic compounds for use in the treatment of cancer” (Artios Pharma Limited, priority 2019, dated 2025).
Where two headings read alike, the source gives them in different places.

Molecular target: Polθ protein (amino acids 2-2590) (Homo sapiens, UniProt O75417)
Experiment: Polθ full length enzyme potency assay (PicoGreen)
Conditions: full length N-His, C-term FLAG tagged Polθ, PicoGreen fluorescence, 12 point concentration response

Sequence of Polθ protein (amino acids 2-2590) (O75417 2-2590): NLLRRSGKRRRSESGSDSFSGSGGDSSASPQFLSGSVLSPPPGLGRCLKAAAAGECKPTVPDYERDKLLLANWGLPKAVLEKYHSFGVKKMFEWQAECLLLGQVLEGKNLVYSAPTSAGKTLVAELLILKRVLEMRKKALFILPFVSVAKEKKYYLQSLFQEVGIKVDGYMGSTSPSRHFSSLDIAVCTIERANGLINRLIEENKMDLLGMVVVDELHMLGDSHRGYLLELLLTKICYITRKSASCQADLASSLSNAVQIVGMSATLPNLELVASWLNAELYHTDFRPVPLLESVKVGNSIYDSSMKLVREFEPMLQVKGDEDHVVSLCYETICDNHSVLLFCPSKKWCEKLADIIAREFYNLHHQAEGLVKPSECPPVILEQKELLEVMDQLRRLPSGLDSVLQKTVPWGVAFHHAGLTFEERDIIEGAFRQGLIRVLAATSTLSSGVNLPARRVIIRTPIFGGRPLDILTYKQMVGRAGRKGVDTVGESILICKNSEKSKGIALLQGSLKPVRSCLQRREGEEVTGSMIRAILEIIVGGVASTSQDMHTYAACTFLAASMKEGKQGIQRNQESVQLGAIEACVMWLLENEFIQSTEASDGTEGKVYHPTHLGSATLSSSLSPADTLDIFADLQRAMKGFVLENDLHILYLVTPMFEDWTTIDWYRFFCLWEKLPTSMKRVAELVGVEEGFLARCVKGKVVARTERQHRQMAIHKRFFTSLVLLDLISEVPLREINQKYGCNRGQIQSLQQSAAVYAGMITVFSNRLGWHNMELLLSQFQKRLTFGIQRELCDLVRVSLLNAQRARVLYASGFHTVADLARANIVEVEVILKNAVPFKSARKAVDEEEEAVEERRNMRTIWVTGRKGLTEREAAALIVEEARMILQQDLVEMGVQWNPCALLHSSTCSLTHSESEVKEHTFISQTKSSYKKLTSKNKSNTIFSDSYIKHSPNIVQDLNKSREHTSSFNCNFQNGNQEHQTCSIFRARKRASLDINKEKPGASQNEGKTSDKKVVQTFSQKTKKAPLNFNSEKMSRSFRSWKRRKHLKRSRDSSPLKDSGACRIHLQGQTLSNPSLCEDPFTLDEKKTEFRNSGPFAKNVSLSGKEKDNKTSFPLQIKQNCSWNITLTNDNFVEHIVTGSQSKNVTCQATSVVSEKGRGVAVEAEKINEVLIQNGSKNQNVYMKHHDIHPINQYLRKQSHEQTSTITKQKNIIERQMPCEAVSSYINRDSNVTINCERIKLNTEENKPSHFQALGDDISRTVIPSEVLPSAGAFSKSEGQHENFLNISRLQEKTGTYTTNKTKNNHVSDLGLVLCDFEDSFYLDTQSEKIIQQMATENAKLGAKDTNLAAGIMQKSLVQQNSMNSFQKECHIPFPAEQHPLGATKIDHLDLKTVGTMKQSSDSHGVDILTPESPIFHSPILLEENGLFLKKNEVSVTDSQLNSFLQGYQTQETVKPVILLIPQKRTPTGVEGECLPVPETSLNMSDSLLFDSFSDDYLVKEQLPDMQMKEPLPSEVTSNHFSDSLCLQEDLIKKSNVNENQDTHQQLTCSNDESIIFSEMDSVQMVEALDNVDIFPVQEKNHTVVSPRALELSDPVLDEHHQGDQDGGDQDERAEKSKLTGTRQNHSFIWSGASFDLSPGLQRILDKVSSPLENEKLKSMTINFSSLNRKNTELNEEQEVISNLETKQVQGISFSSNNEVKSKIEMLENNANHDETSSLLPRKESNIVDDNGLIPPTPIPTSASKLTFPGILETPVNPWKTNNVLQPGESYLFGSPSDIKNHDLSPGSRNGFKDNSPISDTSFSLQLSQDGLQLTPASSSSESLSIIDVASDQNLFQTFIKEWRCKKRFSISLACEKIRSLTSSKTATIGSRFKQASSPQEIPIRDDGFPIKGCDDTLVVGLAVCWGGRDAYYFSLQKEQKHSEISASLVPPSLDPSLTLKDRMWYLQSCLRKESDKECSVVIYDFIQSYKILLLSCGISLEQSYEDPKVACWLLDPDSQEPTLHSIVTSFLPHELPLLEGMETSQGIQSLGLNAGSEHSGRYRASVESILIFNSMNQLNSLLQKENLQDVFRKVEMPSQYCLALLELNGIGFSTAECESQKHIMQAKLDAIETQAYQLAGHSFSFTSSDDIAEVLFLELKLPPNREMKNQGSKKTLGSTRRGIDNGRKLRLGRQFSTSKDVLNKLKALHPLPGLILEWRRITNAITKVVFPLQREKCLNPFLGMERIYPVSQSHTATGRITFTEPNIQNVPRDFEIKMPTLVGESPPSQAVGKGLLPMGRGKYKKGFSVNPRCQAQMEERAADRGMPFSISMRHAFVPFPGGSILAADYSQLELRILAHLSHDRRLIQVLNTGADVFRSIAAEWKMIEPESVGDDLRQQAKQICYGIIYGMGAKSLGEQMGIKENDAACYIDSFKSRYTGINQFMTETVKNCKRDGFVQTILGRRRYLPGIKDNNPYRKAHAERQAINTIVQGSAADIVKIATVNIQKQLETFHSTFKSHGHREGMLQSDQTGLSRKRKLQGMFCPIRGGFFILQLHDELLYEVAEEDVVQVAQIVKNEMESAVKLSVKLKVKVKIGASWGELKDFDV

IC50 (Polθ IC50 (nM)) | IC50 (read-out: Polθ IC50) | Structure (SMILES)
15 nM |  | Cc1cc(C(F)(F)F)cc(N2C(=O)N(CCN3CCC(F)(F)C3)C[C@H]2C(=O)N(C)c2ccc(F)c(Cl)c2F)n1 [Example 206, (S)-N-(3-Chloro-2,4-difluorophenyl)-1-(2-(3,3-difluoropyrrolidin-1-yl)ethyl)-N-methyl-3-(6-methyl-4-(trifluoromethyl)pyridin-2-yl)-2-oxoimidazolidine-4-carboxamide]
94 nM |  | CNc1cccc(N(C)C(=O)[C@@H]2COC(=O)N2c2cc(C(F)(F)F)cc(C)n2)n1 [Example 176, (S)—N-Methyl-3-(6-methyl-4-(trifluoromethyl)pyridin-2-yl)-N-(6-(methylamino)pyridin-2-yl)-2-oxooxazolidine-4-carboxamide]
6 nM |  | Cc1cc(C(F)(F)F)cc(N2C(=O)N(CCO)C[C@H]2C(=O)N(C)c2ccc(F)c(Cl)c2)n1 [Example 193, (S)—N-(3-Chloro-4-fluorophenyl)-1-(2-hydroxyethyl)-N-methyl-3-(6-methyl-4-(trifluoromethyl)pyridin-2-yl)-2-oxoimidazolidine-4-carboxamide]
32 nM |  | Cc1cc(C(F)(F)F)cc(N2C(=O)N(CC3CN(C)C3)C[C@H]2C(=O)N(C)c2ccc(F)c(Cl)c2F)n1 [Example 189, (S)—N-(3-Chloro-2,4-difluorophenyl)-N-methyl-3-(6-methyl-4-(trifluoromethyl)pyridin-2-yl)-1-((1-methylazetidin-3-yl)methyl)-2-oxoimidazolidine-4-carboxamide]
9 nM |  | Cc1cc(C(F)(F)F)cc(N2C(=O)N(CCN3CCNCC3)C[C@H]2C(=O)N(C)c2ccc(F)c(Cl)c2F)n1 [Example 192, (S)—N-(3-Chloro-2,4-difluorophenyl)-N-methyl-3-(6-methyl-4-(trifluoromethyl)pyridin-2-yl)-2-oxo-1-(2-(piperazin-1-yl)ethyl)imidazolidine-4-carboxamide]
9 nM |  | Cc1cc(C(F)(F)F)cc(N2C(=O)N(CC3(CO)COC3)C[C@H]2C(=O)N(C)c2ccc(F)c(Cl)c2F)n1 [Example 186, (S)-N-(3-Chloro-2,4-difluoro-phenyl)-1-((3-(hydroxymethyl)-oxetan-3-yl)methyl)-N-methyl-3-(6-methyl-4-(trifluoromethyl)-pyridin-2-yl)-2-oxoimidazolidine-4-carboxamide]
6 nM |  | Cc1cc(C(F)(F)F)cc(N2C(=O)N(CCN3CC[C@H](F)C3)C[C@H]2C(=O)N(C)c2ccc(F)c(Cl)c2F)n1 [Example 205, (S)-N-(3-Chloro-2,4-difluorophenyl)-1-(2-((S)-3-fluoropyrrolidin-1-yl)ethyl)-N-methyl-3-(6-methyl-4-(trifluoromethyl)pyridin-2-yl)-2-oxoimidazolidine-4-carboxamide]
24 nM |  | Cc1cc(C(F)(F)F)cc(N2C(=O)N(CCN3CC[C@H](O)C3)C[C@H]2C(=O)N(C)c2ccc(F)c(Cl)c2)n1 [Example 196, (S)-N-(3-Chloro-4-fluorophenyl)-1-(2-((S)-3-hydroxypyrrolidin-1-yl)ethyl)-N-methyl-3-(6-methyl-4-(trifluoromethyl)pyridin-2-yl)-2-oxoimidazolidine-4-carboxamide]
12 nM |  | CNC(=O)CCN1C[C@@H](C(=O)N(C)c2ccc(F)c(Cl)c2)N(c2cc(C(F)(F)F)cc(C)n2)C1=O [Example 191, (S)—N-(3-Chloro-4-fluorophenyl)-N-methyl-3-(6-methyl-4-(trifluoromethyl)pyridin-2-yl)-1-(3-(methylamino)-3-oxopropyl)-2-oxoimidazolidine-4-carboxamide]

More lines, now with the values behind:

Structure (SMILES) | IC50 (Polθ IC50 (nM)) | IC50 (read-out: Polθ IC50)
CCN(C(=O)[C@@H]1COC(=O)N1c1cc(C(F)(F)F)cc(C)n1)c1ccc(F)c(Cl)c1 [Example 103, (S)-N-(3-Chloro-4-fluorophenyl)-N-ethyl-3-(6-methyl-4-(trifluoromethyl)-pyridin-2-yl)-2-oxooxazolidine-4-carboxamide] |  | 54 nM
CCN(C(=O)[C@@H]1C[C@H](N2CCOC(CO)C2)CN1c1nc(C)cc(C(F)(F)F)c1C#N)c1ccc(Cl)c(Cl)c1 (stereo partly drawn) [Example 148, (2S,4S)-1-(3-Cyano-6-methyl-4-(trifluoromethyl)pyridin-2-yl)-N-(3,4-dichlorophenyl)-N-ethyl-4-(2-(hydroxymethyl)-morpholino)pyrrolidine-2-carboxamide] | 6 nM | 
Cc1cc(C(F)(F)F)cc(N2C(=O)OC[C@H]2C(=O)N(C)c2ccc(C)c(Cl)c2)n1 [Example 88, (S)-N-(3-Chloro-4-methylphenyl)-N-methyl-3-(6-methyl-4-(trifluoromethyl)pyridin-2-yl)-2-oxooxazolidine-4-carboxamide] | 6 nM | 
C=Cc1cc(N(C)C(=O)[C@@H]2COC(=O)N2c2cc(C(F)(F)F)cc(C)n2)ccc1F [Example 109, (S)—N-(4-Fluoro-3-vinylphenyl)-N-methyl-3-(6-methyl-4-(trifluoromethyl)pyridin-2-yl)-2-oxooxazolidine-4-carboxamide] | 49 nM | 
CCN(C(=O)[C@@H]1C[C@H](N[C@H]2CN(C(=O)OC(C)(C)C)C[C@H]2O)CN1c1cc(C(F)(F)F)cc(C)n1)c1ccc(F)c(F)c1 [Example 136, tert-Butyl (3S,4R)-3-(((3S,5S)-5-((3,4-difluorophenyl)(ethyl)carbamoyl)-1-(6-methyl-4-(trifluoromethyl)pyridin-2-yl)pyrrolidin-3-yl)amino)-4-hydroxypyrrolidine-1-carboxylate] | 45 nM | 
Cc1cc(C(F)(F)F)c(C#N)c(N2CC[C@@H](O)[C@H]2C(=O)N(C)c2ccc(F)c(Cl)c2)n1 [Example 81, (2S,3R)—N-(3-Chloro-4-fluorophenyl)-1-(3-cyano-6-methyl-4-(trifluoromethyl)pyridin-2-yl)-3-hydroxy-N-methylpyrrolidine-2-carboxamide] | 8 nM | 
CCN(C(=O)[C@@H]1C[C@H](N[C@@H]2CN(C(=O)OC(C)(C)C)C[C@H]2O)CN1c1cc(C(F)(F)F)cc(C)n1)c1ccc(F)c(F)c1 (racemic) [Example 135, rac-tert-Butyl (3R,4R)-3-(((3S,5S)-5-((3,4-difluorophenyl)(ethyl)carbamoyl)-1-(6-methyl-4-(trifluoromethyl)-pyridin-2-yl)pyrrolidin-3-yl)amino)-4-hydroxypyrrolidine-1-carboxylate] | 223 nM | 
Cc1cc(C(F)(F)F)cc(N2C(=O)[C@@H](O)[C@@H](O)[C@H]2C(=O)N(C)c2ccc(Cl)cc2F)n1 [Example 165, (2S,3S,4S)—N-(4-Chloro-2-fluorophenyl)-3,4-dihydroxy-N-methyl-1-(6-methyl-4-(trifluoromethyl)pyridin-2-yl)-5-oxopyrrolidine-2-carboxamide] | 20 nM | 
Cc1cc(C(F)(F)F)cc(N2C(=O)NC[C@H]2C(=O)N(c2ccc(F)c(Cl)c2F)C2CC2)n1 [Example 161, (S)—N-(3-Chloro-2,4-difluorophenyl)-N-cyclopropyl-3-(6-methyl-4-(trifluoromethyl)-pyridin-2-yl)-2-oxoimidazolidine-4-carboxamide] | 12 nM | 
CCN(C(=O)[C@@H]1C[C@H](N(C)[C@@H]2COCC[C@H]2O)CN1c1cc(C(F)(F)F)cc(C)n1)c1ccc(F)c(F)c1 [Example 140, (2S,4S)-N-(3,4-Difluorophenyl)-N-ethyl-4-(((3R,4R)-4-hydroxytetrahydro-2H-pyran-3-yl)(methyl)amino)-1-(6-methyl-4-(trifluoromethyl)pyridin-2-yl)pyrrolidine-2-carboxamide] | 60 nM | 
CCN(C(=O)[C@@H]1C[C@H](N[C@@H]2CCC[C@H]2O)CN1c1cc(C(F)(F)F)cc(C)n1)c1ccc(F)c(F)c1 [Example 133, (2S,4S)-N-(3,4-Difluorophenyl)-N-ethyl-4-(((1R,2R)-2-hydroxycyclopentyl)amino)-1-(6-methyl-4-(trifluoromethyl)pyridin-2-yl)pyrrolidine-2-carboxamide] | 122 nM | 
Cc1cccc(N(C)C(=O)[C@@H]2C[C@H](O)CN2c2cc(C(F)(F)F)cc(C)n2)c1 [Example 27, (2S,4S)-4-Hydroxy-N-methyl-1-(6-methyl-4-(trifluoromethyl)pyridin-2-yl)-N-(m-tolyl)pyrrolidine-2-carboxamide] | 12 nM | 
[2H]C([2H])([2H])N(C(=O)[C@@H]1[C@H](O)[C@H](O)C(=O)N1c1cc(C(F)(F)F)cc(C)n1)c1ccc(F)c(Cl)c1F [Example 162, (2S,3S,4S)—N-(3-Chloro-2,4-difluorophenyl)-3,4-dihydroxy-N-(methyl-d3)-1-(6-methyl-4-(trifluoromethyl)pyridin-2-yl)-5-oxopyrrolidine-2-carboxamide] | 3 nM | 
COc1cc(N(C)C(=O)[C@@H]2COC(=O)N2c2cc(C(F)(F)F)cc(C)n2)ccc1C [Example 92, (S)-N-(3-Methoxy-4-methylphenyl)-N-methyl-3-(6-methyl-4-(trifluoromethyl)pyridin-2-yl)-2-oxooxazolidine-4-carboxamide] | 18 nM | 
Cc1cc(C(F)(F)F)cc(N2C(=O)OC[C@H]2C(=O)N(C)c2ccc3cc[nH]c3n2)n1 [Example 127, (S)—N-Methyl-3-(6-methyl-4-(trifluoromethyl)pyridin-2-yl)-2-oxo-N-(1H-pyrrolo[2,3-b]pyridin-6-yl)oxazolidine-4-carboxamide] | 15 nM | 
Cc1cc(C)c(C#N)c(N2C[C@@H](O)C[C@H]2C(=O)N(C)c2cccc(C(F)F)c2)n1 [Example 12, (2S,4S)-1-(3-Cyano-4,6-dimethylpyridin-2-yl)-N-(3-(difluoromethyl)phenyl)-4-hydroxy-N-methylpyrrolidine-2-carboxamide] | 710 nM | 
CCN(C(=O)[C@@H]1C[C@H](NC2CNC(=O)C2)CN1c1cc(C(F)(F)F)cc(C)n1)c1ccc(F)c(F)c1 (stereo partly drawn) [Example 137, (2S,4S)-N-(3,4-Difluorophenyl)-N-ethyl-1-(6-methyl-4-(trifluoromethyl)pyridin-2-yl)-4-((5-oxopyrrolidin-3-yl)amino)pyrrolidine-2-carboxamide] | 300 nM | 
CO[C@H]1C[C@@H](C(=O)N(C)c2cccc(C)c2)N(c2nc(C)cc(C(F)(F)F)c2C#N)C1 [Example 36, (2S,4S)-1-(3-Cyano-6-methyl-4-(trifluoromethyl)pyridin-2-yl)-4-methoxy-N-methyl-N-(m-tolyl)pyrrolidine-2-carboxamide] | 48 nM | 
